Molecular target: T1, NTCP (Homo sapiens, UniProt Q14973)
T1 construct: expressed in transfected cells; host or cells: HepG2-hNTCP-C4
T1 sequence (Q14973 1-349): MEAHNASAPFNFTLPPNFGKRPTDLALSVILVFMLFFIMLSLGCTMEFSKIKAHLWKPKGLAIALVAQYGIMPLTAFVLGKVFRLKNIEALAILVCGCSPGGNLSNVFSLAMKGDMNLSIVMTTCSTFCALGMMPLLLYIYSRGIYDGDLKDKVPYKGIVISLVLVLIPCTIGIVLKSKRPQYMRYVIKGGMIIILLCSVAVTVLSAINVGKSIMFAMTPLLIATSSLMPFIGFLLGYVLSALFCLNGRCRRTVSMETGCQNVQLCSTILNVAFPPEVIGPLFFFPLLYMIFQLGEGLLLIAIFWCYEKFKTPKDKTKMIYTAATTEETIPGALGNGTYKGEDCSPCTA
Assay: Inhibition of the binding between PreS1 (FITC-labelled) and NTCP expressing cell lines, flow cytometry
Settings: for activity at 50 µM: 2 h, read-out: relative fluorescence intensity compared to the HBV-induced group (HBV PreS1) solely treated with PreS1, 50 µM compound, 20 nM PreS1, HepG2-hNTCP-C4 cell line, 4°C, 2 hours, the lower the value, the more inhibited the binding
Method: HepG2-hNTCP-C4 cell line, a cell line expressing NTCP, was seeded in a 6 well plate at a density of 2×10^5/well and incubated at 4°C for 30 minutes when the confluency reached 80% after overnight incubation for 2 days. Thereafter, 20 nM PreS 1 (Myr-[…]-Lys(FITC)) and the compounds in Example 1, Examples 38 to 56 or the compound in Comparative Example 1 were treated by diluting in culture media at 4°C at a concentration of 50 µM respectively, and the media was suctioned after 2 hours, followed by washing 3 times with 4°C PBS. In order to take the cells off from the plate, 500 µl of 0.5 mM EDTA PBS solution was treated, and then incubation was performed at 37°C for 15 minutes to check whether the cells fell off through an optical microscope. After taking off the cells by pipetting, the cells were collected in a 1.5 ml tube and centrifuged (4000 rpm, 4°C, 3 min). After suctioning the supernatant, the pellet was washed 3 times with 4°C PBS, and then green fluorescence was measured via flow cytometry. In this case, taurocholic acid (TCA), a compound known as a substrate of NTCP to reduce the entry of HBV or HDV, was used as a positive control group.
In the graph at the top of FIG. 1, black (1) and red (2) indicate a negative control group with no treatment and an HBV-induced group (HBV preS1) solely treated with PreS1, respectively. Blue (HBV preS1+HBV entry inhibitor) (3) is the fluorescence value for each of Examples or Comparative Examples, evaluated that the closer to the negative control group, the more inhibited the binding between PreS1 and the NTCP cell line.
The experimental method was the same as in the Experimental Example 1-1, and 20 nM PreS1 and each compound were treated at 4 concentrations (0.2 µM, 2 µM, 10 µM, 50 µM).
With an expectation that there is a structure-activity relationship among compounds composed of bile acid and amino acids, for each of bile acids in Comparative Example 1 (lithocholic acid, LCA), Comparative Example 2 (ursodeoxycholic acid, UDCA), Comparative Example 3 (cholic acid, CA), Comparative Example 4 (hyodeoxycholic acid, HDCA), Comparative Example 5 (deoxycholic acid, DCA), and Comparative Example 6 (chenodeoxycholic acid, CDCA), an evaluation experiment was conducted on an ability to inhibit the binding between PreS1 and NTCP expressing cell lines, and also for Examples 1 (LCA-Ile) and Example 44 (LCA-Val) as well as the compounds in Example 2 (UDCA-Ile), Example 3 (UDCA-Val), Example 6 (CA-Ile), Example 7 (CA-Val), Example 8 (HDCA-Ile), Example 9 (HDCA-Val), Example 10 (DCA-Ile), Example 11 (DCA-Val), Example 14 (CDCA-Ile), and Example 15 (CDCA-Val) in which bile acid parts (lithocholic acid) of Example 1 (LCA-Ile) and Example 44 (LCA-Val) were substituted with other types of bile acids in Comparative Examples 2 to 6, an evaluation experiment was conducted on an ability to inhibit the binding between PreS1 and NTCP expressing cell lines. The experimental method was the same as in the Experimental Example 1-1, and 18 compounds in the Comparative Examples 1 to 6, Examples 1 to 3, Examples 6 to 11, Examples 14 to 15, and Example 44 were treated at a concentration of 50 µM along with 20 nM PreS 1. […]
In the Experimental Examples 1-4, it was determined whether there is additionally concentration dependence for Example 4 (UDCA-Trp), a compound with good inhibitory ability. […]

| Compound | activity at 50 µM [%] | effect of inhibiting the binding between PreS1 and NTCP expressing cell lines by treatment concentration (2 µM, 10 µM, 20 µM, 50 µM compound, 20 nM PreS1) |
| --- | --- | --- |
| C[C@H](CCC(=O)N1CCCC1C(=O)O)[C@H]1CC[C@H]2[C@@H]3CC[C@@H]4C[C@H](O)CC[C@]4(C)[C@H]3CC[C@]12C (stereo partly drawn) [Example 38, 1-((R)-4-((3R,5R,8R,9S,10S,13R,14S,17R)-3-hydroxy-10,13-dimethyl-hexadecahydro-1H-cyclopenta[a]phenanthren-17-yl)pentanoyl)pyrrolidine-2-carboxylic acid] | ≤ 20 | – |
| C[C@H](CCC(=O)N[C@@H](Cc1c[nH]c2ccccc12)C(=O)O)[C@H]1CC[C@H]2[C@@H]3[C@@H](O)C[C@@H]4C[C@H](O)CC[C@]4(C)[C@H]3CC[C@]12C [Example 4, (S)-2-((R)-4-((3R,5S,7S,8R,9S,10S,13R,14S,17R)-3,7-dihydroxy-10,13-dimethyl-hexadecahydro-1H-cyclopenta[a]phenanthren-17-yl)pentanamido)-3-(1H-indol-3-yl)propanoic acid] | – | concentration dependent |
| C[C@H](CCC(=O)N[C@@H](CS)C(=O)O)[C@H]1CC[C@H]2[C@@H]3CC[C@@H]4C[C@H](O)CC[C@]4(C)[C@H]3CC[C@]12C [Example 40, (R)-2-((R)-4-((3R,5R,8R,9S,10S,13R,14S,17R)-3-hydroxy-10,13-dimethyl-hexadecahydro-1H-cyclopenta[a]phenanthren-17-yl)pentanamido)-3-mercaptopropanoic acid] | ≤ 20 | – |
| CSCC[C@H](NC(=O)CC[C@@H](C)[C@H]1CC[C@H]2[C@@H]3CC[C@@H]4C[C@H](O)CC[C@]4(C)[C@H]3CC[C@]12C)C(=O)O [Example 48, (S)-2-((R)-4-((3R,5R,8R,9S,10S,13R,14S,17R)-3-hydroxy-10,13-dimethyl-hexadecahydro-1H-cyclopenta[a]phenanthren-17-yl)pentanamido)-4-(methylthio)butanoic acid] | ≤ 20 | – |
| CC(C)C[C@H](NC(=O)CC[C@@H](C)[C@H]1CC[C@H]2[C@@H]3CC[C@@H]4C[C@H](O)CC[C@]4(C)[C@H]3CC[C@]12C)C(=O)O [Example 47] | ≤ 20 | – |
